Results reported in patent US20230212606A1, “COMPOSITIONS AND METHODS FOR TREATING KCNQ4-ASSOCIATED HEARING LOSS” (Akouos, Inc., priority 2020, published 2023).

How the values were obtained:
KCNQ4 [1] = experiment: SaCas9/gRNA knockdown of KCNQ4 in HEK cells, western blot, TIDE, immunofluorescence (FIG. 10); assay type: cell-based, human; settings: western blot and immunofluorescence analyses (data not shown)
Text: The present example describes a targeting strategy that knocks out both KCNQ4 alleles and replaces wild-type KCNQ4 with a codon-optimized KCNQ4 using a SaCas9/gRNA strategy FIG. (FIG. 9). The present example also describes an in vitro analysis of KCNQ4 knockdown in HEK cells via Western blot and quantitative PCR.
The following guides were transfected with SaCas9 and KCNQ4 DNA to determine knockdown efficiency: sg233Fw (lane 2), sg386Fw (lane 3), sg408Rev (lane 4), sg447Fw(lane 5), sg482Fw (lane 6), and sg490Fw (lane 7). An untransfected control (lane 8), sgVEGF (targeting VEGF) (lane 9), and Beta-Actin expression (lanes 2-9) were used as controls. […] To expand and/or improve upon results obtained thus far, similar experiments can be performed in 3T3 cells using deadCas9 and mouse sgRNA sequences.

KCNQ4 [2] = experiment: shRNA- and CRISPR-mediated knockdown of KCNQ4 expression in HEK293 cells (FIG. 3, lanes); assay type: cell-based, human; settings: HEK293 cells with KCNQ4 construct, N=4 biological replicates
Experimental: The following shRNA constructs and KCNQ4 constructs were tested in HEK293 cells: sh395, sh909, sh1095, sh1531, sh1593, sh1677, sh1721, and sh1827 (see FIG. 3). The following constructs were tested in HEK293 cells as a positive control (e.g., as a reference for maximum knockdown of KCNQ4 that can be achieved): SaCas9+sgRNA 447Fw+KCNQ4 (lane 11). A shVEGF construct (targeting VEGF) and KCNQ4 construct were tested in HEK293 cells as a negative control (lane 10). In addition, only the KCNQ4 construct was tested in HEK293 cells as a negative control (lane 12). […] The level of expression of KCNQ4 was most reduced by sh1827 and sgRNA 447Fw in this example. FIGS. 11 and 12 each show efficacy of knockdown with each of the shRNA constructs as well as an empty shRNA construct (“Mock”). Levels of KCNQ4 were measured using quantitative PCR, normalized to GAPDH. Two independent biological replicates were performed (FIGS. 11 and 12), each of which had three replicates per condition.

Row | Substance | inhibition of KCNQ4 expression relative to other sgRNAs (KCNQ4 [1]) | level of expression of KCNQ4 (KCNQ4 [2])
1 | sgRNA 386Fw: gRNA targeting KCNQ4, SEQ ID NO: 42, target AGGAGCACCAGGAACTTGCCA (expressed or natural sequence) | inhibited KNCQ4 expression more than other sgRNAs | –
2 | sgRNA 408Rev: gRNA targeting KCNQ4, SEQ ID NO: 43, target AAGCCGAAAACCACGATCATC (expressed or natural sequence) | inhibited KNCQ4 expression more than other sgRNAs | –
3 | sgRNA 447Fw: gRNA targeting KCNQ4, SEQ ID NO: 45, target TTTCGGCTTGGAGTACATCGT; used with SaCas9 (expressed or natural sequence) | – | most reduced
4 | sh1827: shRNA construct targeting KCNQ4; by order probably SEQ ID NO: 55 (GGTGGATGAAATCAGCATGATCGAAATCATGCTGATTTCATCCACC) | – | most reduced
